{
  "source": "paper PMC11189555",
  "about": "“Aryl amino acetamides prevent Plasmodium falciparum ring development via targeting the lipid-transfer protein PfSTART1” (Nature Communications, 2024)",
  "tested_on": "3D7 P. falciparum parasites",
  "assay": "Growth inhibition assay (72 h, LDH activity)",
  "type": "cell-based, Plasmodium falciparum",
  "settings": "for NORMALISED (growth inhibition, LDH absorbance vs DMSO and uRBC): 3D7, 0 mM GlcN; for NORMALISED (growth inhibition, LDH absorbance) / (av-uRBC) / (DMSO-uRBC) x100: 3D7",
  "method": "Parasite growth assays with inhibitory compounds were performed as per[11] and are fully described in the Supplementary Information. […]\nGrowth inhibition assays. Synchronised ring-stage parasites (0.3-0.6% parasitemia, 2% haematocrit) were grown for 72 h in a serial-dilution of the compound under […]\nand compound 4. Note that M-833 was first purchased from MolPort (MolPort -002-267-916) then made in-house at WEHI: the differences observed in EC50s across experiments are attributed to the different batches of M -833. For some experiments, 0, 0.25 or 2.5 mM of glucosamine (GlcN) was also added. Experiments were set up in technical duplicates or triplicates. Following a freeze -thaw cycle, lactate dehydrogenase (LDH) activity was assessed as an indicator of parasite growt h 5. 30 μL of parasite culture was incubated for 30 min in the dark with 75 μL Malstat mixture (0.1 M Tris pH 9.0, 20 g/L lactic acid, pH 7.5, 0.2% Triton-X100, 0.5 g/L acetylpyridine adenine dinucleotide (APAD, Sigma), 200 μg/mL nitroblue tetrazolium (NBT; Sigma), 1 μg/mL phenozine ethosulfate (PES; Sigma)). Absorbance was then measured at 650 nm, transformed using the formula below, plotted against the logarithm of the concentrations, and a non-linear regression (log(inhibitor) vs. response, variable slope) was calculated using GraphPad Prism to assess the half-inhibitory […]\nGrowth inhibition % = (1 − average(sample)− average(uRBC)) ∗ 100 […]\nThe DMSO samples were also used to assess growth of parasite in the presence of 0.25 and 2.5 mM GlcN (normalised by DMSO in 0 mM GlcN). […]",
  "note": "Several values for one entry are separate records, joined by “and”; a condition that tells them apart may be missing. Equal values may be shown once.",
  "data": [
    {"smiles": "CC(C)(Nc1ccc(Cl)c(S(=O)(=O)N2CCOCC2)c1)C(=O)Nc1ccc(F)c(Cl)c1", "note": "[W-991]", "values": [
      {"measurement": "NORMALISED (growth inhibition, LDH absorbance vs DMSO and uRBC)", "setting": "W991 at 0.137174 nM", "result": "9.0099 and 4.6722"},
      {"measurement": "NORMALISED (growth inhibition, LDH absorbance vs DMSO and uRBC)", "setting": "W991 at 0.411523 nM", "result": "30.495 and 19.7030"},
      {"measurement": "NORMALISED (growth inhibition, LDH absorbance vs DMSO and uRBC)", "setting": "W991 at 1.23457 nM", "result": "67.3267 and 60.8717"},
      {"measurement": "NORMALISED (growth inhibition, LDH absorbance vs DMSO and uRBC)", "setting": "W991 at 3.7037 nM", "result": "88.9109 and 93.8187"},
      {"measurement": "NORMALISED (growth inhibition, LDH absorbance vs DMSO and uRBC)", "setting": "W991 at 11.1111 nM", "result": "90.3465 and 96.7162"},
      {"measurement": "NORMALISED (growth inhibition, LDH absorbance vs DMSO and uRBC)", "setting": "W991 at 33.3333 nM", "result": "89.8515 and 96.9697"},
      {"measurement": "NORMALISED (growth inhibition, LDH absorbance vs DMSO and uRBC)", "setting": "W991 at 100 nM", "result": "92.3267 and 97.2232"},
      {"measurement": "NORMALISED (growth inhibition, LDH absorbance)", "setting": "0.25 mM GlcN, dilution point 1 of 10, starting concentration 100 nM", "result": 97.1868},
      {"measurement": "NORMALISED (growth inhibition, LDH absorbance)", "setting": "0.25 mM GlcN, dilution point 2 of 10 from starting concentration 100 nM", "result": 96.6100},
      {"measurement": "NORMALISED (growth inhibition, LDH absorbance)", "setting": "0.25 mM GlcN, dilution point 3 of 10 from starting concentration 100 nM", "result": 96.4481},
      {"measurement": "NORMALISED (growth inhibition, LDH absorbance)", "setting": "0.25 mM GlcN, dilution point 4 of 10 from starting concentration 100 nM", "result": 92.3801},
      {"measurement": "NORMALISED (growth inhibition, LDH absorbance)", "setting": "0.25 mM GlcN, dilution point 5 of 10 from starting concentration 100 nM", "result": "74.4235 and 44.8087"},
      {"measurement": "NORMALISED (growth inhibition, LDH absorbance)", "setting": "2.5 mM GlcN, dilution point 1 of 10, starting concentration 100 nM", "result": 96.9212},
      {"measurement": "NORMALISED (growth inhibition, LDH absorbance)", "setting": "2.5 mM GlcN, dilution point 2 of 10 from starting concentration 100 nM", "result": 96.2021},
      {"measurement": "NORMALISED (growth inhibition, LDH absorbance)", "setting": "2.5 mM GlcN, dilution point 3 of 10 from starting concentration 100 nM", "result": 95.7667},
      {"measurement": "NORMALISED (growth inhibition, LDH absorbance)", "setting": "2.5 mM GlcN, dilution point 4 of 10 from starting concentration 100 nM", "result": 92.5258},
      {"measurement": "NORMALISED (growth inhibition, LDH absorbance)", "setting": "2.5 mM GlcN, dilution point 5 of 10 from starting concentration 100 nM", "result": 58.1932},
      {"measurement": "NORMALISED (growth inhibition, LDH absorbance)", "setting": "2.5 mM GlcN, dilution point 6 of 10 from starting concentration 100 nM", "result": 27.2129},
      {"measurement": "NORMALISED (growth inhibition, LDH absorbance)", "setting": "2.5 mM GlcN, dilution point 8 of 10 from starting concentration 100 nM", "result": "5.32 and 8.1730"},
      {"measurement": "(av-uRBC) / (DMSO-uRBC) x100", "setting": "conc. 0.0762079 nM, Biological replicate 1 (2021-10-25)", "result": 91.3585},
      {"measurement": "(av-uRBC) / (DMSO-uRBC) x100", "setting": "conc. 0.0762079 nM, Biological replicate 2 (2021-11-03)", "result": 90.9909},
      {"measurement": "(av-uRBC) / (DMSO-uRBC) x100", "setting": "conc. 0.0762079 nM, Biological replicate 3 (2021-11-11)", "result": 91.0985},
      {"measurement": "(av-uRBC) / (DMSO-uRBC) x100", "setting": "conc. 0.228624 nM, Biological replicate 1 (2021-10-25)", "result": 79.3619},
      {"measurement": "(av-uRBC) / (DMSO-uRBC) x100", "setting": "conc. 0.228624 nM, Biological replicate 2 (2021-11-03)", "result": 81.2617},
      {"measurement": "(av-uRBC) / (DMSO-uRBC) x100", "setting": "conc. 0.228624 nM, Biological replicate 3 (2021-11-11)", "result": 73.154},
      {"measurement": "(av-uRBC) / (DMSO-uRBC) x100", "setting": "conc. 0.685871 nM, Biological replicate 1 (2021-10-25)", "result": 42.85},
      {"measurement": "(av-uRBC) / (DMSO-uRBC) x100", "setting": "conc. 0.685871 nM, Biological replicate 2 (2021-11-03)", "result": 72.8867},
      {"measurement": "(av-uRBC) / (DMSO-uRBC) x100", "setting": "conc. 0.685871 nM, Biological replicate 3 (2021-11-11)", "result": 42.2112},
      {"measurement": "(av-uRBC) / (DMSO-uRBC) x100", "setting": "conc. 2.05761 nM, Biological replicate 1 (2021-10-25)", "result": 12.3757},
      {"measurement": "(av-uRBC) / (DMSO-uRBC) x100", "setting": "conc. 2.05761 nM, Biological replicate 2 (2021-11-03)", "result": 18.386},
      {"measurement": "(av-uRBC) / (DMSO-uRBC) x100", "setting": "conc. 2.05761 nM, Biological replicate 3 (2021-11-11)", "result": 9.397},
      {"measurement": "(av-uRBC) / (DMSO-uRBC) x100", "setting": "conc. 6.17284 nM, Biological replicate 1 (2021-10-25)", "result": 9.357},
      {"measurement": "(av-uRBC) / (DMSO-uRBC) x100", "setting": "conc. 6.17284 nM, Biological replicate 2 (2021-11-03)", "result": 11.686},
      {"measurement": "(av-uRBC) / (DMSO-uRBC) x100", "setting": "conc. 6.17284 nM, Biological replicate 3 (2021-11-11)", "result": 6.494},
      {"measurement": "(av-uRBC) / (DMSO-uRBC) x100", "setting": "conc. 18.5185 nM, Biological replicate 1 (2021-10-25)", "result": 9.8}
    ]}
  ]
}
